Data on one compound can be found in patent US20250002492A1, “COMPOSITIONS OF FOLATE ABSORPTION INHIBITORS AND METHODS THEREOF” (THE TEXAS A&M UNIVERSITY SYSTEM, priority 2023, published 2025).

For one data set, the system named is C. elegans. The note with it: 220 μM, treated at the adult stage; cited from earlier work.
Another data set deals with C. elegans strain N2. Nature of the data set: Lifespan assay in worms. Format: in vivo. From the text:
The ability of pharmacological or other interventions to extend the lifespan of different organisms is often conserved. For the instant example, the disclosed compounds can be tested for their ability to extend the lifespan of the worm model system Caenorhabditis elegans (N2 strain) [see, e.g., PMID: 19488025]. The organisms can be first exposed to the compounds as adults, 2-3 days after the egg stage until their death, on solid media containing the compounds at the desired concentration. The temperature can be kept constant at 20° C. throughout the assays. The bacteria used as food for the worms (Escherichia coli strain OP-50) can be dead (e.g., killed by lethal doses of ultraviolet radiation) to ensure that any effects on lifespan are not indirect, mediated through bacterial metabolism.
The assays were performed at 20° C. using C. elegans strain N2 and a bacterial strain (OP50) commonly used as food for the worms. Briefly, the assays were performed on solid agar nematode growth media (NGM) plates prepared fresh before each experiment. The bacterial lawn was exposed twice to a UV dose of 120 mJ/cm^2 using a UVC-515 Ultraviolet Multilinker (Ultra-Lum, Inc.). Streaking these UV-exposed bacteria to fresh LB agar plates (1% w/v tryptone, 0.5% w/v yeast extract, 1% w/v sodium chloride) produced no visible colonies. Methotrexate, or the ATIC inhibitor, was first dissolved in DMSO and then added to the media used to prepare the plates after autoclaving (the media were kept in a 50° C. water bath until the plates were poured). Mock-treated control plates contained only DMSO. At the start of each experiment, a sufficient number of eggs were collected from plates without any drugs and then placed on plates containing the indicated doses of each compound tested. After hatching and progression to the adult stage, animals were transferred to new plates (marked as the start of the lifespan assay) containing the drug tested and fluorodeoxyuridine (FUDR; dissolved in water), added at 50 μM to block hatching of new animals. The plates were scored at least every other day until all the worms died. If an animal responded to gentle touch, it was scored as alive, otherwise a death was recorded, and the animal was removed from the plate. Worms were transferred to fresh plates as needed (e.g., if there was evidence of microbial contamination, dryness/cracks on the agar surface, consumption of the bacterial lawn, or hatching of new animals that escaped the FUDR block). The reported lifespans were compiled from several independent experiments done over several months (9-10 months for the methotrexate experiments and 4-5 months for the ATIC inhibitor), each scored by multiple individuals (4-5 persons per experiment). No experiments were excluded from the analysis.

A further data set deals with mice. The note with it: cited from earlier work.
For data set [1], the system named is S. cerevisiae strain BY4742. Nature of the data set: Replicative lifespan assay in yeast. Format: cell-based. The method, then: The assays were performed in the standard S. cerevisiae strain BY4742 (MATα his3Δ1 leu2Δ0 lys2Δ0 ura3Δ0) on solid rich undefined media (YPD; 1% w/v yeast extract, 2% W/v peptone, 2% W/v dextrose, 2% w/v agar).
(§1) In the instant example, methotrexate (MTX), or the ATIC inhibitor (ATIC-Inh), was dissolved in dimethylsulfoxide (DMSO) and used at the final concentrations shown in FIGS. 2B-2D. The cell size measurements shown in FIG. 3 were also done in strain BY4742 in YPD.

Data set [2] concerns S. cerevisiae strain BY4742. As to the kind of experiment: Cell size measurement in yeast (Z2 Channelyzer). Format: cell-based. As to conditions: from 47 fL. The method, then:
as §1
Briefly, overnight cultures were diluted to about 5×10^5 cells/mL in fresh media, allowed to proliferate for 2-3 h at 30° C., and then methotrexate was added at the indicated final concentrations. 4-5 h later, cell size was measured with a Z2 Channelyzer.

In another data set the test system is Swiss mice. The note with it: 0-10 ppm in the diet in alternating weeks, male and female, 7 to 120 weeks of age; 5 of the 8 conditions tested; one case p=0.04; cited from earlier work.
In another data set the test system is yeast cells. As to the kind of experiment: Yeast cell proliferation. Format: cell-based, S. cerevisiae. The note with it: low doses (0.5-10 μM); not shown.

Where two headings read alike, the source gives them in different places.

For the compound `CN(Cc1cnc2nc(N)nc(N)c2n1)c1ccc(C(=O)N[C@@H](CCC(=O)O)C(=O)O)cc1` [methotrexate, 4-amino-N10-methylpteroylglutamic acid], the “lifespan” value was “did not extend their lifespan” with C. elegans and “did not extend lifespan” with C. elegans strain N2 (higher doses 10-100 μM, not shown). Besides, the lifespan extension in the data set on C. elegans strain N2 (1-3 μM, continuous exposure from embryo stage until death, p<2E-14 log-rank) is recorded as roughly 15%. Besides, the 50% lethal dose (LD50) (commonly the dose expected to kill half of the subjects tested) in the data set on mice (5-week-old mice) was 59 mg/kg; with mice (16-week-old mice) it was 284 mg/kg. In addition, the “yeast replicative lifespan” value in data set [1] (0.5-10 μM, p<0.05 log-rank test) is “increased yeast replicative lifespan”. Moreover, the maximal lifespan extension in data set [1] (dose 1 μM) is recorded as roughly 15%. The “yeast replicative longevity” value in data set [1] (higher concentrations (above 10 μM; 50-100 μM)) was “did not extend replicative longevity”. Besides, the cell size in data set [2] (50 μM) stood at 56 fL; in data set [2] (100 μM), 64 fL; in data set [2] (concentrations up to 10 μM) it was 52 fL. Further, the “mean lifespan vs control group” value in the data set with Swiss mice is “mean lifespan was longer than in the control group”. Moreover, the “cell proliferation” value with yeast cells is listed as “did not affect cell proliferation significantly”.
